For this assay, the target named is SARS-CoV2-Mpro (Severe acute respiratory syndrome coronavirus 2 (2019-nCoV) (SARS-CoV-2), UniProt P0DTD1). Kind of assay: Primary assay: SARS-CoV2-Mpro enzymatic activity inhibition. To be noted: enzyme preincubated with compound for 20 min; slope of linear portion of signal. Format: biochemical. As for the experimental part:
Example A. Primary Assay Used to Determine Potency of SARS-CoV2-Mpro Enzymatic Activity Inhibition
• (1) Deliver 2× Enzyme • (2) Deliver buffer into No Enzyme wells • (3) Deliver compounds in 100% DMSO by using Acoustic technology (Echo550; nanoliter range) • (4) Incubate for 20 min • (5) Deliver 2× Substrate to initiate the reaction • (6) Spin & shake, start measuring in EnVision at rt; 5 min interval for 25 (2 hours) • (7) Analyze data by taking slope (signal/time) of linear portion of measurement • (8) Slope is calculated by using Excel, and curve fits are performed using Prism software.
The % inhibition was then used to calculate the IC50 values. The IC50 values are shown in Table A, wherein “A” corresponds to IC50<10.0 nm, “B” corresponds to 10.0 nm≤IC50<50.0 nm, “C” corresponds to 50.0 nm≤IC50<100.0 nm, “D” corresponds to 100.0 nm≤IC50<500.0 nm, and “E” corresponds to 500.0 nm≤IC50<1000.0 nm, and “F” corresponds to 1000.0 nm≤IC50.
Turning to `CC(C)(C)[C@H](NC(=O)C(F)(F)F)C(=O)N1C[C@H]2C([C@H]1C(=O)N[C@H](C#N)C[C@]1(C)C(=O)Nc3ccccc31)C2(C)C` (stereo in doubt) [Compound 239, (1S,2S,5S)-N-[1-cyano-2-(3-methyl-2-oxo-indolin-3-yl)ethyl]-3-[(2S)-3,3-dimethyl-2-[(2,2,2-trifluoroacetyl)amino]butanoyl]-6,6-dimethyl-3-azabicyclo[3.1.0]hexane-2-carboxamide], the IC50 is ≥ 1000 nM. On to `CC(C)(C)[C@H](NC(=O)C(F)(F)F)C(=O)N1C[C@H]2C([C@H]1C(=O)N[C@H](C#N)CC1C(=O)Nc3ccc(F)cc31)C2(C)C` (stereo in doubt) [Compound 236, (1S,2S,5S)-N-[(1S)-1-cyano-2-(5-fluoro-2-oxo-indolin-3-yl)ethyl]-3-[(2S)-3,3-dimethyl-2-[(2,2,2-trifluoroacetyl)amino]butanoyl]-6,6-dimethyl-3-azabicyclo[3.1.0]hexane-2-carboxamide], for which the IC50 lay within 10 to 50 nM. On to `CC(C)(C)[C@H](NC(=O)C(F)(F)F)C(=O)N1C[C@H]2C([C@H]1C(=O)N[C@H](C#N)CC1C(=O)Nc3ccc(Br)cc31)C2(C)C` (stereo in doubt) [Compound 232, (1S,2S,5S)-N-[(1S)-2-(5-bromo-2-oxo-indolin-3-yl)-1-cyano-ethyl]-3-[(2S)-3,3-dimethyl-2-[(2,2,2-trifluoroacetyl)amino]butanoyl]-6,6-dimethyl-3-azabicyclo[3.1.0]hexane-2-carboxamide], for which the IC50 fell in the range of 10 to 50 nM. For `CN(C(=O)[C@@H]1C2[C@H](CN1C(=O)[C@@H](NC(=O)C(F)(F)F)C(C)(C)C)C2(C)C)[C@H](C#N)CC1C(=O)Nc2ccccc21` (stereo in doubt) [Compound 231, (1S,2S,5S)-N-[(1S)-1-cyano-2-(2-oxoindolin-3-yl)ethyl]-3-[(2S)-3,3-dimethyl-2-[(2,2,2-trifluoroacetyl)amino]butanoyl]-N,6,6-trimethyl-3-azabicyclo[3.1.0]hexane-2-carboxamide] the value was 50 to 100 nM; for `Cc1ccc2c(c1)C(CC(C#N)NC(=O)C1C3[C@H](CN1C(=O)[C@@H](NC(=O)C(F)(F)F)C(C)(C)C)C3(C)C)C(=O)N2` (stereo in doubt) [Compound 230, (1S,2S,5S)-N-[1-cyano-2-(5-methyl-2-oxo-indolin-3-yl)ethyl]-3-[(2S)-3,3-dimethyl-2-[(2,2,2-trifluoroacetyl)amino]butanoyl]-6,6-dimethyl-3-azabicyclo[3.1.0]hexane-2-carboxamide], 10 to 50 nM; for `CC(C)CCN(C(=O)[C@@H]1[C@@H]2[C@H](CN1C(=O)[C@@H](NC(=O)C(F)(F)F)C(C)(C)C)C2(C)C)[C@H](C#N)C[C@@H]1C(=O)Nc2ccccc21` [Compound 247, (1R,2S,5S)-N-[(1S)-1-cyano-2-(2-oxoindolin-3-yl)ethyl]-3-[(2S)-3,3-dimethyl-2-[(2,2,2-trifluoroacetyl)amino]butanoyl]-N-isopentyl-6,6-dimethyl-3-azabicyclo[3.1.0]hexane-2-carboxamide], ≥ 1000 nM.

On to `CC(C)(C)[C@H](NC(=O)C(F)(F)F)C(=O)N1C[C@H]2C([C@H]1C(=O)N[C@H](C#N)CC1C(=O)Nc3cc(Br)ccc31)C2(C)C` (stereo in doubt) [Compound 233, (1S,2S,5S)-N-[(1S)-2-(6-bromo-2-oxo-indolin-3-yl)-1-cyano-ethyl]-3-[(2S)-3,3-dimethyl-2-[(2,2,2-trifluoroacetyl)amino]butanoyl]-6,6-dimethyl-3-azabicyclo[3.1.0]hexane-2-carboxamide], for which the IC50 lay within 50 to 100 nM. For `CC(C)(C)[C@H](NC(=O)C(F)(F)F)C(=O)N1C[C@H]2C([C@H]1C(=O)N[C@H](C#N)CC1C(=O)Nc3c(Cl)cccc31)C2(C)C` (stereo in doubt) [Compound 235, (1S,2S,5S)-N-[(1S)-2-(7-chloro-2-oxo-indolin-3-yl)-1-cyano-ethyl]-3-[(2S)-3,3-dimethyl-2-[(2,2,2-trifluoroacetyl)amino]butanoyl]-6,6-dimethyl-3-azabicyclo[3.1.0]hexane-2-carboxamide] the value was < 10 nM; for `CC(C)(C)[C@H](NC(=O)C(F)(F)F)C(=O)N1C[C@H]2C([C@H]1C(=O)N[C@H](C#N)Cn1c(=O)[nH]c3ccccc31)C2(C)C` (stereo in doubt) [Compound 301, (1R,2S,5S)—N—((S)-1-cyano-2-(2-oxo-2,3-dihydro-1H-benzo[d]imidazol-1-yl)ethyl)-3-((S)-3,3-dimethyl-2-(2,2,2-trifluoroacetamido)butanoyl)-6,6-dimethyl-3-azabicyclo[3.1.0]hexane-2-carboxamide], ≥ 1000 nM; for `CC(C)(C)[C@H](NS(C)(=O)=O)C(=O)N1C[C@H]2C([C@H]1C(=O)N[C@H](C#N)CC1C(=O)Nc3ccccc31)C2(C)C` (stereo in doubt) [Compound 237, (1S,2S,5S)-N-[(1S)-1-cyano-2-(2-oxoindolin-3-yl)ethyl]-3-[(2S)-2-(methanesulfonamido)-3,3-dimethyl-butanoyl]-6,6-dimethyl-3-azabicyclo[3.1.0]hexane-2-carboxamide], < 10 nM. To `CC(C)(C)[C@H](NS(=O)(=O)CC(F)(F)F)C(=O)N1C[C@H]2C([C@H]1C(=O)N[C@H](C#N)C[C@@H]1CCNC1=O)C2(C)C` (stereo in doubt) [Compound 209, (1R,2S,5S)—N-[(1S)-1-cyano-2-[(3S)-2-oxopyrrolidin-3-yl]ethyl]-3-[(2S)-3,3-dimethyl-2-(2,2,2-trifluoroethylsulfonylamino)butanoyl]-6,6-dimethyl-3-azabicyclo[3.1.0]hexane-2-carboxamide] belongs 10 to 50 nM; to `Cc1cccc2c1C(C[C@@H](C#N)NC(=O)[C@@H]1C3[C@H](CN1C(=O)[C@@H](NC(=O)C(F)(F)F)C(C)(C)C)C3(C)C)C(=O)N2` (stereo in doubt) [Compound 234, (1S,2S,5S)-N-[(1S)-1-cyano-2-(4-methyl-2-oxo-indolin-3-yl)ethyl]-3-[(2S)-3,3-dimethyl-2-[(2,2,2-trifluoroacetyl)amino]butanoyl]-6,6-dimethyl-3-azabicyclo[3.1.0]hexane-2-carboxamide], 500 to 1000 nM. For `CC(C)(C)[C@H](NC(=O)C(F)(F)F)C(=O)N1C[C@H]2C([C@H]1C(=O)N[C@H](C#N)CC1C(=O)Nc3ccccc31)C2(C)C` (stereo in doubt) [Compound 217, (1R,2S,5S)—N-((1S)-1-Cyano-2-(2-oxoindolin-3-yl)ethyl)-3-((S)-3,3-dimethyl-2-(2,2,2-trifluoroacetamido)butanoyl)-6,6-dimethyl-3-azabicyclo[3.1.0]hexane-2-carboxamide] the value was < 10 nM; for `COc1ccc2c(c1)C(C[C@@H](C#N)NC(=O)[C@@H]1[C@H]3[C@H](CN1C(=O)[C@@H](NC(=O)C(F)(F)F)C(C)(C)C)C3(C)C)C(=O)N2` (stereo partly drawn) [Compound 221, (1S,2S,5S)-N-[(1S)-1-cyano-2-(5-methoxy-2-oxo-indolin-3-yl)ethyl]-3-[(2S)-3,3-dimethyl-2-[(2,2,2-trifluoroacetyl)amino]butanoyl]-6,6-dimethyl-3-azabicyclo[3.1.0]hexane-2-carboxamide], < 10 nM. With `Cc1ccc2c(c1)C(C[C@@H](C#N)NC(=O)[C@@H]1[C@H]3[C@H](CN1C(=O)[C@@H](NC(=O)C(F)(F)F)C(C)(C)C)C3(C)C)C(=O)N2` (stereo partly drawn) [Compound 220, (1S,2S,5S)-N-[(1S)-1-cyano-2-(5-methyl-2-oxo-indolin-3-yl)ethyl]-3-[(2S)-3,3-dimethyl-2-[(2,2,2-trifluoroacetyl)amino]butanoyl]-6,6-dimethyl-3-azabicyclo[3.1.0]hexane-2-carboxamide], the IC50 is 10 to 50 nM. To `CC(C)(C)[C@H](NC(=O)C(F)(F)F)C(=O)N1CCC2(CC2)CC1C(=O)N[C@H](C#N)C[C@@H]1CCNC1=O` (mixture of isomers) [Compound 206, N—((S)-1-Cyano-2-((S)-2-oxopyrrolidin-3-yl)ethyl)-6-((S)-3,3-dimethyl-2-(2,2,2-trifluoroacetamido)butanoyl)-6-azaspiro[2.5]octane-5-carboxamide] belongs 10 to 50 nM; to `CC(C)(C)[C@H](NC(=O)C(F)(F)F)C(=O)N1C[C@H]2[C@H]([C@H]1C(=O)N[C@H](C#N)Cn1nnc3ccccc31)C2(C)C` [Compound 308, (1S,2S,5S)-N-[(1S)-2-(benzotriazol-1-yl)-1-cyano-ethyl]-3-[(2S)-3,3-dimethyl-2-[(2,2,2-trifluoroacetyl)amino]butanoyl]-6,6-dimethyl-3-azabicyclo[3.1.0]hexane-2-carboxamide], ≥ 1000 nM. To `CC(C)(C)[C@H](NC(=O)C(F)(F)F)C(=O)N1C[C@H]2C(C1C(=O)N[C@H](C#N)CC1(F)C(=O)Nc3ccccc31)C2(C)C` (stereo in doubt) [Compound 228, (1S,2S,5S)-N-[(1S)-1-cyano-2-(3-fluoro-2-oxo-indolin-3-yl)ethyl]-3-[(2S)-3,3-dimethyl-2-[(2,2,2-trifluoroacetyl)amino]butanoyl]-6,6-dimethyl-3-azabicyclo[3.1.0]hexane-2-carboxamide] belongs 10 to 50 nM; to `CC(C)(C)[C@H](NC(=O)C(F)(F)F)C(=O)N1C[C@H]2[C@H]([C@H]1C(=O)N[C@H](C#N)CC1C(=O)Nc3ccc(Cl)cc31)C2(C)C` (stereo partly drawn) [Compound 218, (1S,2S,5S)-N-[(1S)-2-(5-chloro-2-oxo-indolin-3-yl)-1-cyano-ethyl]-3-[(2S)-3,3-dimethyl-2-[(2,2,2-trifluoroacetyl)amino]butanoyl]-6,6-dimethyl-3-azabicyclo[3.1.0]hexane-2-carboxamide], 10 to 50 nM.

One may read the IC50 as the concentration that gives 50% inhibition.

For the origin of these results see patent publication US20250376464A1 (Trawsfynydd Therapeutics, Inc., priority 2022, published 2025).
